These results are taken from patent US6214537A, “Synthetic peptides and mixtures thereof for detecting HIV antibodies” (Biochem Immunosystems, Inc., priority 1988, dated 2001).

In series [1] the test system is HIV-1 antibodies. The note with it: cited from earlier work; for sensitivity: HIV-1 seropositive samples, literature.
In a further series the test system is HIV-2 antibodies. Briefly: ELISA, single peptides identifying HIV-2 positive sera. Particulars: 5 tested. Type of series: binding, human. The procedure: A preferred convenient and classical technique for the determination of antibodies against AIDS virus using a peptide or a peptide mixture of the present invention is an enzyme-linked immunosorbent assay (ELISA). According to this test a peptide or a peptide mixture of the present invention is adsorbed onto the wells of a microtiter plate. The wells are then treated with sera to be tested. After washing, anti-human IgG labeled with peroxidase is added to the wells. The determination of the peroxidase is performed with a corresponding substrate, e.g. with o-phenylene diamine. Also in this procedure the peroxidase can be exchanged by another label, e.g. by a radioactive or fluorescence label.
The cyclic peptides of the present invention and their mixtures with one or more linear peptides were tested in accordance with the ELISA test described previously against a variety of sera, some of which were confirmed positive and others which were confirmed negative.
TABLE 4 provides the results of single peptides which were individually evaluated in identifying known HIV-2 positive sera.
(§1) Each well of the microtiter plate is saturated with 100 μl of a solution containing a peptide or mixture of peptides (5 μg/ml) and left overnight. The wells are emptied and washed twice with a washing buffer (Tris, 0.043M; NaCl, 0.5M;thimerosal, 0.01% w/v; Tween 20, 0.05% v/v; pH 7.4). The wells are then saturated with 0.35 ml of washing buffer for 1 hr. at 37° C. and washed once with the same buffer. Serum samples to be analyzed are diluted with specimen buffer (washing buffer plus casein, 0.05% w/v). The wells are rinsed with washing buffer prior to the addition of the diluted serum sample (0.1 ml). These are left to incubate for 1 hr. at room temperature. The wells are then emptied, washed twice rapidly and then once for two minutes with washing buffer. […] The wells are then emptied and washed twice rapidly with washing buffer and then five times in which the buffer was in contact with the well 2 minutes per washing.
(§2) The substrate solution (3,3', 5,5'-tetramethylbenzidine, 8 mg per ml of DMSO) is diluted with 100 volumes 0.1M citrate-acetate buffer, pH 5.6 containing 0.1% v/v of 30% H2 O2 and added to each well (0.1 ml per well). After 10 minutes the contents of each well is treated with 0.1 ml 2N H2 SO4 and the optical density read at 450 nm. All determinations are done in duplicate.
(In general: In an ELISA, binding on a coated surface is turned into a signal by an enzyme label.)

The subject of the next series is HIV-1-antibodies. Briefly: ELISA, cyclic versus non-cyclic peptides, sera at various dilutions. It is filed as binding, human. The procedure:
TABLE 5 is provided to illustrate the sensitivity of cyclic versus noncyclic peptides in the ELISA test by comparing the results of some sera at various dilutions.
(§3) Plates used in this experiment were coated with solutions of peptides at 10 μg/ml. (Experimental results of TABLE 5 were obtained with plates coated with peptides at 0,5 μg/ml). Four different HIV-1 positive serum samples were serially diluted and their titers determined. The titer was defined as the serum dilution giving an absorbancy reading of 1:0 in the conditions of the ELISA procedure already described.
as §1, §2

In series [2] the test system is HIV-1 antibodies. The experiment in a line: ELISA, single peptides identifying HIV-1 positive sera. It is filed as binding, human. The note with it: ELISA, single peptide. The procedure:
According to this test a peptide or a peptide mixture of the present invention is adsorbed onto the wells of a microtiter plate. The wells are then treated with sera to be tested. After washing, anti-human IgG labeled with peroxidase is added to the wells. The determination of the peroxidase is performed with a corresponding substrate, e.g. with o-phenylene diamine. Also in this procedure the peroxidase can be exchanged by another label, e.g. by a radioactive or fluorescence label.
as §1, §2

The nature of series [3]: State of peptide in coating solution (HPLC, Ellman's test). It is filed as physicochemical. From the text: (§4) Even though results presented in TABLE 5 clearly show the superiority of cyclic peptides over their linear counterpart in detecting HIV-1-antibodies, that increased sensitivity could have been underestimated because of probable cyclization and polymerization of the linear peptide after solubilization in a carbonate buffer (pH 9.6). That experiment was repeated with the linear 87 and cyclic 87c peptides dissolved in a carbonate buffer (pH 9.6) as before and also in 10% acetic acid (pH 2.7). […] It is believed that cydization and polymerization also occured in the wells of the microtiter plates although the exact proportion of cyclic peptide bound to the plates versus linear has not been as yet determined.
A general note: In Ellman's method for cholinesterases, released thiocholine reacts with DTNB.

In series [4] the test system is antibodies specific to HIV-1. Briefly: ELISA serum titers, plates coated with cyclic 87c versus linear 87. Type of series: binding, human.
Text: as §4, §3
The ratios of sensitivities measured with the cyclic peptide over the linear 87 peptide vary between 1:3 and 2:2 with an average of 1:8. These ratios are even larger, varying from 3:0 to 4:5, when the sensitivity of the ELISA test using the cyclic 87c peptide is compared using conditions (acidic pH) where the linear 87 peptide remains linear and is not allowed to cyclize or polymerize.

Turning to “7-mer peptide: SGKLIC with a cysteine residue added to the N-terminus (605-611), Gnann et al.”, in the series on HIV-1 antibodies [1], the sensitivity is recorded as 48%.

For `CC[C@H](C)[C@H](NC(=O)[C@H](C)NC(=O)[C@@H](NC(=O)[C@@H](NC(=O)[C@@H](N)CCCNC(=N)N)C(C)C)[C@@H](C)O)C(=O)N[C@@H](CCC(=O)O)C(=O)N[C@@H](CCCCN)C(=O)N[C@@H](Cc1ccc(O)cc1)C(=O)N[C@@H](CC(C)C)C(=O)N[C@@H](CCC(N)=O)C(=O)N[C@@H](CC(=O)O)C(=O)N[C@@H](CCC(N)=O)C(=O)N[C@@H](C)C(=O)N[C@@H](CCCNC(=N)N)C(=O)N[C@@H](CC(C)C)C(=O)N[C@@H](CC(N)=O)C(=O)N[C@@H](CO)C(=O)N[C@@H](Cc1c[nH]c2ccccc12)C(=O)NCC(=O)N[C@H]1CSSC[C@@H](C(=O)N[C@@H](Cc2c[nH]cn2)C(=O)N[C@H](C(=O)N[C@H](C(=O)N[C@H](C(=O)N2CCC[C@H]2C(=O)N[C@@H](Cc2c[nH]c3ccccc23)C(=O)N[C@H](C(=O)N[C@@H](CC(N)=O)C(=O)N[C@@H](CC(=O)O)C(=O)N[C@@H](CO)C(=O)O)C(C)C)C(C)C)[C@@H](C)O)[C@@H](C)O)NC(=O)[C@H](C(C)C)NC(=O)[C@H](CCC(N)=O)NC(=O)[C@H](CCCNC(=N)N)NC(=O)[C@H](Cc2ccccc2)NC(=O)[C@H](C)NC1=O` [Peptide 202], the “% Positive Sera correctly Identified” value in the series with HIV-2 antibodies is on record as 100%.

Consider `CC[C@H](C)[C@H](NC(=O)[C@H](CCC(=O)O)NC(=O)[C@@H](NC(=O)[C@@H](N)CC(C)C)C(C)C)C(=O)N[C@H](C(=O)N1CCC[C@H]1C(=O)N[C@H](C(=O)NCC(=O)N[C@@H](Cc1ccccc1)C(=O)N[C@@H](C)C(=O)N1CCC[C@H]1C(=O)N[C@H](C(=O)N[C@@H](CCCCN)C(=O)N[C@@H](CCC(=O)O)C(=O)N[C@@H](CCCCN)C(=O)N[C@@H](CCCNC(=N)N)C(=O)N[C@@H](Cc1ccc(O)cc1)C(=O)N[C@@H](CO)C(=O)N[C@@H](CO)C(=O)N[C@@H](C)C(=O)N[C@@H](Cc1c[nH]cn1)C(=O)NCC(=O)N[C@@H](CCCNC(=N)N)C(=O)O)[C@@H](C)O)[C@@H](C)CC)[C@@H](C)O` [Peptide 203], for which the “% Positive Sera correctly Identified” value in the series on HIV-2 antibodies worked out at 100%.

On to `CC[C@H](C)[C@H](NC(=O)[C@H](CCC(=O)O)NC(=O)[C@@H](NC(=O)[C@@H](N)CC(C)C)C(C)C)C(=O)N[C@H](C(=O)N1CCC[C@H]1C(=O)N[C@H](C(=O)NCC(=O)N[C@@H](Cc1ccccc1)C(=O)N[C@@H](C)C(=O)N1CCC[C@H]1C(=O)N[C@H](C(=O)N[C@@H](CCCCN)C(=O)N[C@@H](CCC(=O)O)C(=O)N[C@@H](CCCCN)C(=O)N[C@@H](CCCNC(=N)N)C(=O)O)[C@@H](C)O)[C@@H](C)CC)[C@@H](C)O` [Peptide 204], for which the “% Positive Sera correctly Identified” value in the series with HIV-2 antibodies came out at 100%.

As for “NH2 -RILAVERYLKDQQLLGIWGCSGKLICTTAVPWNAS-COOH [Peptide 87]”, the ELISA optical density with HIV-1-antibodies (serum 87V103, dilution 1/50) is 0.005 optical density units; with HIV-1-antibodies (serum 1428, dilution 1/50), 1.463 optical density units; in the series with HIV-1-antibodies (serum M-5, dilution 1/50), 1.809 optical density units; in the series on HIV-1-antibodies (serum M-5, dilution 1/100), 1.685 optical density units; in the series on HIV-1-antibodies (serum M-5, dilution 1/200), 1.513 optical density units; in the series with HIV-1-antibodies (serum M-5, dilution 1/400) it was 1.418 optical density units. The ELISA optical density with HIV-1-antibodies (serum M-5, dilution 1/800) came to 1.012 optical density units; with HIV-1-antibodies (serum M-7, dilution 1/50), 1.504 optical density units; in the series on HIV-1-antibodies (serum M-7, dilution 1/100), 1.329 optical density units; in the series on HIV-1-antibodies (serum M-7, dilution 1/200) it was 1.184 optical density units; in the series with HIV-1-antibodies (serum M-7, dilution 1/400) it was 0.923 optical density units; in the series on HIV-1-antibodies (serum M-7, dilution 1/800), 0.571 optical density units. In addition, the ELISA optical density is reported as 1.390 optical density units in the series on HIV-1-antibodies (serum M-8, dilution 1/50); 1.087 optical density units with HIV-1-antibodies (serum M-8, dilution 1/100); 0.883 optical density units in the series with HIV-1-antibodies (serum M-8, dilution 1/200); 0.593 optical density units in the series on HIV-1-antibodies (serum M-8, dilution 1/400); 0.240 optical density units with HIV-1-antibodies (serum M-8, dilution 1/800); 1.846 optical density units in the series on HIV-1-antibodies (serum M-16, dilution 1/50). The ELISA optical density with HIV-1-antibodies (serum M-16, dilution 1/100) was determined as 1.784 optical density units; in the series on HIV-1-antibodies (serum M-16, dilution 1/200) it was 1.740 optical density units; with HIV-1-antibodies (serum M-16, dilution 1/400) it was 1.634 optical density units; in the series on HIV-1-antibodies (serum M-16, dilution 1/800) it was 1.537 optical density units. Besides, the “% Positive Sera correctly Identified” value with HIV-1 antibodies [2] was determined as 99%. In addition, in series [3] (10% acetic acid (pH 2.7)), the “state of peptide in solution (HPLC, Ellman's test)” value is on record as “remained linear”. Moreover, the “state of peptide in solution (HPLC)” value in series [3] (carbonate buffer (pH 9.6), room temperature) was “underwent cyclization and polymerization”. The serum titer in series [4] (coating buffer 10% Acetic Acid (pH 2.7), serum M-5, coated at 10 μg/ml) was 4500; in series [4] (coating buffer 10% Acetic Acid (pH 2.7), serum M-7, coated at 10 μg/ml) it was 2300; in series [4] (coating buffer 10% Acetic Acid (pH 2.7), serum M-8, coated at 10 μg/ml) it was 1400; in series [4] (coating buffer 10% Acetic Acid (pH 2.7), serum M-16, coated at 10 μg/ml), 15000; in series [4] (coating buffer Carbonate Bicarbonate 0.1M (pH 9.6), serum M-5, coated at 10 μg/ml), 10500; in series [4] (coating buffer Carbonate Bicarbonate 0.1M (pH 9.6), serum M-7, coated at 10 μg/ml), 6000. Moreover, the serum titer was 2900 in series [4] (coating buffer Carbonate Bicarbonate 0.1M (pH 9.6), serum M-8, coated at 10 μg/ml) and 33000 in series [4] (coating buffer Carbonate Bicarbonate 0.1M (pH 9.6), serum M-16, coated at 10 μg/ml).

As for SGKLIC, the “immunoreactivity with HIV-1 positive sera” value with HIV-1 antibodies [1] (22 HIV-1 positive sera tested, Gnann et al.) was “not immunoreactive”.

For the compound “SGKLICTTAVPWNAS [short synthetic peptide covering residues 606 to 620 of gp41 (HIV-1), U.S. Ser. No. 120,027]”, the sensitivity in the series with HIV-1 antibodies [1] is reported as 89%. The “specificity (samples correctly identified)” value in the series on HIV-1 antibodies [1] (U.S. Ser. No. 120,027) is given as 63/63.
